Test [1] has as its system wild type E. Coli. The note with it: previous data; cited from earlier work.
Test [2] relates to S. typhimurium TA100. The test can be described thus: Dose range finding colony forming assay, strain TA100 with metabolic activation. It counts as cell-based. The note with it: positive control, 2 μg/plate. The method, then: (§1) A series of dose range finding assays were performed with five bacterial strains, S. typhimurium TA97a, TA98, TA100, TA1535, and E. coli WP2 uvrA pKM101, with and without metabolic activation at three plates per dose. The following doses, along with positive and negative controls, were tested: 5000, 2500, 1250, 500, 250, 125, 50, 20, 10, 5, 2, 1, and 0.2 μg/plate. The plates were evaluated for toxicity (a decrease in plate counts with increasing dose and/or a visible thinning of the background lawn) and for precipitation of the test article. Metabolic activation was included in some samples by adding phenobarbital/benzoflavone-induced rat liver S9 fractions with cofactors (S9 mix). Prior to use, freshly thawed aliquots of rat liver S9 were mixed with a sterile cofactor mix. The S9 mix contains a 10% liver S9 concentration and was refrigerated or stored on ice until used. When testing with metabolic activation, the S9 mix was used in the assay tube in place of phosphate buffer.
(§2) Dosing formulations were prepared to deliver all doses in a constant volume of 0.1 mL. The highest dose was prepared from test article weighed to the nearest 0.1 mg and the remaining formulations were prepared as serial dilutions from the high dose stock formulation. Using a permanent marking pen or computer printed labels, assay plates were labeled with the project and study numbers and the date. Assay plates and tubes were labeled with a unique identifier, which was used to match the assay tubes with the properly identified minimal glucose agar plate.
(§3) The pre-incubation method was used to perform the assay. The assay mix consisted of 0.1 mL of the test article formulation or control article, 0.5 mL S9 mix or phosphate buffer, and 0.1 mL of bacterial culture. Assay tubes were incubated at 37±1° C. with gentle agitation for 20±1 minutes, then 2.0-2.5 mL top agar was added to the assay mix and the top agar/assay mix poured onto appropriately labeled minimal glucose agar plates. Once the top agar hardened, the plates were inverted and incubated at 37±1° C. for 48±2 hours. Plates were counted with the Sorcerer (v. 2.2)/Ames Study Manager (v. 1.2.4) system from Perceptive Instruments (Suffolk, UK). With this system, plate counts are automatically transferred from the plate imager (Sorcerer) to a Study Manager spreadsheet, and the data are stored in a secure manner on an Oracle database. Some plates were hand counted, e.g., if sample precipitate interferes with automatic counting or toxicity results in the formation of microcolonies, in which case, counts for these plates were entered into the spreadsheet manually. Plates were scored also with the extent of colonization by a post fix code.

Test [3] relates to NEB 5 α competent E. coli. The test can be described thus: Bacterial colony forming assay (Examples 6-9). It counts as cell-based. The settings on record: alcohol gel. The method, then: NEB 5 α competent E. coli were retrieved from frozen cultures and grown overnight in a bacterial incubator at 37° C. Proliferating cultures of bacteria were used in a colony forming assay by adding 25 μL of bacteria from the overnight culture to 10 mL of fresh Lysogeny Broth (LB; Bertani, G. (2004). “Lysogeny at mid-twentieth century: P1, P2, and other experimental systems”. Journal of Bacteriology. 186 (3): 595-600. PMC 321500. PMID 14729683. doi:10.1128/JR.186.3.595-600.2004). 1 mL of this diluted bacteria was added to various dilutions of formulations of substituted tolan compounds as described in Table C, below and in charts of the corresponding Figures.
One mL of each formulation was mixed with 1 mL of diluted bacteria in LB and put onto agar plates. Alcohol gels were allowed to dry and incubated overnight for 16-18 hrs. Control plates consisted of 2 mL alcohol gel plus 1 mL diluted bacteria, resulting in a colony count of less than 10 colonies, a 1 mL alcohol gel plus 1 mL diluted bacteria, resulting in a partial lawn of bacteria (colonies were too close to count appropriately), 1 mL diluted bacteria alone, resulting in a full lawn of bacteria (no distinguishable colonies), and an appropriate dilution of PEG-400 and HPβCD into 1 mL of alcohol gel plus 1 mL diluted bacteria, resulting in a lawn of bacteria. Plate area was then selected and the Image J colony counter was used to obtain colony counts (Size (pixels squared) 5-1000 and circularity 0.5-1).

Test [4] relates to S. typhimurium TA98. In words: Dose range finding colony forming assay, strain TA98 with metabolic activation. It counts as cell-based. The note with it: positive control, 2 μg/plate. The procedure:
as §1, §2, §3

In test [5] the test system is S. typhimurium TA97a. The test can be described thus: Dose range finding colony forming assay, strain TA97a with metabolic activation. The note with it: positive control, 2.5 μg/plate. It counts as cell-based. The method, then:
as §1, §2, §3

Test [6] deals with S. typhimurium TA1535. The test can be described thus: Dose range finding colony forming assay, strain TA1535 without metabolic activation. The note with it: positive control, 1 μg/plate. It counts as cell-based. The method, then: as §1, §2, §3
The subject of test [7] is Methicillin Resistant Staphylococcus aureus (MRSA, USA 400). In words: Colony forming assay, 24 h plate assay, MRSA USA 400. It is filed as cell-based. The note with it: Tobramycin 600 μg/mL, compared to the vehicle control, FIG. 9. The method, then: Proliferating cultures of Methicillin Resistant Staphylococcus aureus (MRSA, USA 400) were used in a colony forming assay. Frozen stock cultures of MRSA USA 400 were thawed and grown overnight in tryptic soy broth (TSB) with shaking at 37° C. The overnight culture (0.5-1.0 mL) was added to 100 mL TSB and grown at 37° C. with shaking and monitored for an optical density of 0.55-0.60 in order to obtain a final inoculum suspension of approximately 10^8 CFU/mL.
BM3103 was suspended into a 70% v/v alcohol gel formulation to acquire the desired % w/v tested within the example. Each concentration was vortexed thoroughly until dissolved. Initial tested concentrations of BM3103 were 1, 0.5, and 0.1% w/v. These concentrations and the alcohol gel vehicle were mixed with equal parts of the 10^8 CFU/mL inoculum to obtain a final concentration of 0.5, 0.25, and 0.05% (22 mM, 11 mM, and 2 mM) BM3103. Tobramycin (600 μg/mL) served as the positive control. Vehicle and BM3103 formulations contained matching final concentration of 35% v/v alcohol.
BM3103 was dissolved into Transcutol (diethylene glycol monoethyl ether) at 2.5% w/v and vortexed until dissolved. This concentration was then serial diluted to achieve the remaining concentrations tested. Before plating, 100 μL of the final inoculum (10^8 CFU/mL) was mixed with 20 μL TSB broth and 80 μL of BM3103 doses or vehicle. Tobramycin, 600 μg/mL, served as the positive control. The final plating concentrations for BM3103 were 1, 0.5, 0.25, and 0.1% w/v (44 mM, 22 mM, 11 mM, 4 mM) BM3103. Vehicle and BM3103 formulations contained matching final concentration of 40% v/v Transcutol.
The above listed formulations combined with the MRSA inoculum were plated onto TSB agar plates. The plates were grown at 37° C. for 24 h, imaged, and the bacteria colonies were counted. The experiment was done in triplicate at each concentration level described above. Colony counts for each treatment were tabulated and the Log of the colony forming units/mL (Log CFU/mL) were determined. The mean and the standard error of the mean were calculated for each treatment.

The test system of test [8] is Methicillin Resistant Staphylococcus aureus (MRSA USA 300). The test can be described thus: Colony forming assay, spread plate, MRSA USA 300. It is filed as cell-based. The note with it: Tobramycin 600 μg/mL; compared to the untreated control; 24 h; FIGS. 6A-6B. The procedure: A fresh culture of pathogenic isolate was used in these examples. The bacterial strains used were Methicillin Resistant Staphylococcus aureus (MRSA USA 300), Pseudomonas aeruginosa ATCC 27312, and Candida albicans ATCC 64550.
FIG. 5 illustrates the spread plate method used in these examples. In sum, agar plates were made, bacteria were diluted to 10^6 or 10^8 CFU/mL, bacteria and drug were mixed together and then plated. Glass spreading beads were used because they give a better bacterial spread. Plates were incubated for 24 hrs then the colonies that formed were counted.
Proliferating cultures of Methicillin Resistant Staphylococcus aureus (MRSA, USA 300) were used in a colony forming assay. Freeze-dried bacteria culture of MRSA was recovered by swabbing a 3-cm diameter growth area and resuspending it to obtain a final inoculum suspension of approximately 10^8 CFU/mL. The concentration was confirmed using historical optical density measurements. The total compound BM3103 was suspended in a 70% v/v alcohol gel formulation (Formulation A) before the introduction of bacteria, with the vehicle consisting of solely the 70% v/v alcohol gel. MRSA at 10^8 CFU/mL was challenged with equal parts of a high, medium, and low dose of BM3103, vehicle formulation, positive control (Tobramycin, 600 μg/mL), or untreated control (phosphate buffered saline). The inoculum was plated on Tryptic Soy Broth plates at 37° C. for 24 h. Plates were photographed and counted. The treatment for each experiment was done in triplicate, and the experiment was repeated three times, for a total of 9 plates per group.
Colony counts for each treatment were tabulated and the Log of the colony forming units/mL (Log CFU/mL) was determined. The mean and standard deviation of the Log CFU/mL were calculated for each treatment. A one-way analysis of variance was performed at a 95% confidence interval.

With `Oc1ccc(C#Cc2cc(O)cc(O)c2)cc1` [3,5,4′-trihydroxytolan], the “Effectiveness against wild type E. Coli” value in test [1] was “ineffective”.
With `c1ccc2c(c1)cc1ccc3cccc4ccc2c1c34` [BAP_Moltox, Benzo(a) pyrene_Moltox, reference compound], in test [2], the Colony forming units/plate is recorded as 806.0 colony forming units/plate.
Consider `Oc1ccc(C#Cc2ccc(C(F)(F)F)cc2)cc1` [BM3213, 4-hydroxy-4′-(trifluoro)methyltolan], for which the “Inhibition of E. coli growth” value in test [3] (2.23 mM, FIG. 3) is listed as “very inhibitory to E. coli”; in test [3] (concentrations 10 fold diluted from 2.23 mM, FIG. 3), “less so”.
Turning to `COc1ccc(C#Cc2ccc(OC)c(OC)c2)cc1` [BM3303, 3,4,4′-trimethoxytolan], the “Inhibition of E. coli growth” value in test [3] (1.11 mM, FIG. 4) is listed as “an inhibitor to E. coli”; in test [3] (concentrations 10-fold diluted from 1.11 mM, FIG. 4), “less so”. The “Dose dependence of inhibition of E. coli” value in test [3] (FIG. 4) is recorded as “dose dependent inhibitory effects”.
Turning to `Nc1ccc2cc3ccccc3cc2c1` [Compound 2A, 2-Aminoanthracene, reference compound], the Colony forming units/plate is 2315.0 colony forming units/plate in test [4] and 3241.3 colony forming units/plate in test [5].
Regarding `[N-]=[N+]=[N-]` [NaN3, Sodium Azide, reference compound], in test [6], the Colony forming units/plate is 714.7 colony forming units/plate.
Regarding `NC[C@H]1O[C@H](O[C@H]2[C@H](O)[C@@H](O[C@H]3O[C@H](CO)[C@@H](O)[C@H](N)[C@H]3O)[C@H](N)C[C@@H]2N)[C@H](N)C[C@@H]1O` [Tobramycin, reference compound], the “Reduction of MRSA USA 400 counts” value in test [7] is listed as 4 fold. Besides, the “Reduction of MRSA USA 300 counts” value in test [8] is given as 6 fold.

The values are drawn from US12678412B2, “Substituted tolans for the modulation of microbial colonization” (BioMendics, LLC, priority 2017, dated 2026).
